Test results taken from patent publication US20250353891A1 (MEDIMMUNE LIMITED, priority 2022, published 2025).
Read-outs that look alike come from different tables or passages of the source. Starred links: 1 amine or outer side, 2 acyl side, 3 side chain; linkers in the order of their positions; H or OH if unused. Non-standard residues stand in square brackets, D forms with d. Residues, ends and D or L forms follow the SMILES beside them. Groups on a side chain read outwards from the residue. *: point of attachment. C18 diacid = O=C(O)CCCCCCCCCCCCCCCCC(=O)*; Dip = N[C@H](C(=O)O)C(c1ccccc1)c1ccccc1; γGlu = O=C(O)[C@H](CCC(=O)[*:2])N[*:1]; Stearoyl = CCCCCCCCCCCCCCCCCC(=O)*; Palmitoyl = CCCCCCCCCCCCCCCC(=O)*; αMeF = C[C@](N)(Cc1ccccc1)C(=O)O; PEG4 = NCCOCCOCCOCCOCCC(=O)O; PEG2 = NCCOCCOCCC(=O)O; AEEA = NCCOCCOCC(=O)O; Aib = CC(C)(N)C(=O)O

Legend:
[1] = Mouse acute food intake study; assay type: in vivo; settings: male C57Bl/6 mice, s.c., dose 10 nmol/kg, cumulative food intake at 24 hr vs vehicle
Outline: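 Peptide or vehicle went subcutaneously (5 mL/kg) to 6-8 h-fasted male C57Bl/6 mice shortly before the dark phase, with groups balanced on body weight and 24-hour intake. Cumulative food consumption was derived from 48 h of automated BioDaq monitoring with free food and water access.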

[2] = Proteolytic resistance to FasSSIF/Pancreatin; assay type: in vitro ADME; settings: simulated intestinal fluid
Procedure: A fresh suspension of FasSSIF/P (Fasted-State Simulated Intestinal Fluid+USP Pancreatin®) was prepared according to that described by Galia, Nicolaides, Hörter, Löbenberg, Reppas and Dressman: Pharm. Res. 15 (1998) 698-705, and USP XL requirements. The resulting preparation was used immediately without storage.
Peptide for evaluation (1.0 mg) was dissolved in pre-warmed FasSSIF without Pancreatin® (200 μL). To this fresh FasSSIF/Pancreatin® (100 μL) was added to initiate potential proteolysis. Following momentary vortexing of the reaction tube the mixture was incubated at 37° C. in a thermostatic water bath for the duration of the experiment. 25 μL aliquot of the co-incubated peptide-enzyme mixture was periodically withdrawn (t=0, 5, 10 15 and 30 min) and quenched immediately by addition to a solution of 10% TFA in 1:1 water/acetonitrile (75 μL) to arrest proteolytic activity. Quenched samples were centrifuged (7800 RPM, 3 mins) to pellet solids and 10 μL aliquots of the supernatant solution were analyzed using analytical RP-HPLC as follows: Analytical RP-HPLC method: Agilent Polaris C8-A column (4.6×100 mm, 3 micron) eluted with a linear binary gradient of 10-90% MeCN (0.1% TFA v/v) in water (0.1% TFA v/v) over either 10 or 15 mins at 1.5 mL min^−1 at 40° C. with detection by UV absorption at 210 nm. Manual integration (AUC) allowed estimation of remaining intact peptide over the time course of the experiment.

[3] = test system: GLP-1R knockout (KO) mice; test: Glucose change in GLP-1R knockout mice; assay type: in vivo, mouse; settings: GLP-1R KO mice, s.c., 120 min vs 0 min
Procedure: (§1) They acclimated for a minimum of ˜1-2 weeks, and mice were sorted into groups (n=4-8/group) based on body weight. On day of study, mice were fasted briefly for 2 hrs prior to study start. In some studies, mice were pre-treated with octreotide (BaChem, 10 mg/kg) at 30 minutes prior to peptide injection. Glucose was measured via glucometer at various timepoints including-30 min (prior to octreotide when used in studies), 0 min (before peptide dose), 30, 60, 120, 180, 240, and 360 minutes. Since these studies are acute in nature, mice were re-used for multiple studies (no more than 3) and always allowed at least a minimum wash-out period of 1 week.

[4] = test system: wildtype (WT) mice; test: Glucose change in wildtype mice; assay type: in vivo, mouse; settings: s.c., 120 min vs 0 min
Procedure: as §1, with “GLP-1R knockout (KO) and wildtype (WT) mice at 8-14 weeks of age were singly housed on standard chow diet (Envigo, 2918) and automatic water. They” for “They”

[5] = target: human GLP-1 receptor (hGLP-1R) (Homo sapiens, UniProt P43220); test: cAMP production (HTRF) in CHO cells expressing hGLP-1R; assay type: cell-based; design: expressed in transfected cells; settings: for EC50: geometric mean, read-out: hGLP-1R EC50; for % Relative Potency Ratio: % GLP-1R activity relative to GLP-1 / % GlucR activity relative to glucagon
Outline: (§2)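 Potency values represent EC50 from 4-parameter logistic curves of HTRF % Delta F signal. Receptor-expressing CHO cells (hGCGR 2×10^5 cells/mL, hGLP-1R 1×10^5 cells/mL) were exposed for 30 min at room temperature before two-step cAMP detection.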

[6] = target: human glucagon receptor (hGCGR) (Homo sapiens, UniProt P47871); test: cAMP production (HTRF) in CHO cells expressing hGCGR; assay type: cell-based; design: expressed in transfected cells; settings: geometric mean, read-out: hGluc-R EC50
Outline: as §2

[7] = 3 nmol/kg, no somatostatin pretreatment
[8] = Table 6, peptides modified at position 17, cAMP in CHO hGLP-1R cells
[9] = Table 6, peptides modified at position 17, cAMP in CHO hGCGR cells
[10] = 10 nmol/kg, somatostatin pretreatment (octreotide) 30 min prior to cpd
[11] = 30 nmol/kg, somatostatin pretreatment (octreotide) 30 min prior to cpd

Sequence of human GLP-1 receptor (hGLP-1R) (P43220 24-463): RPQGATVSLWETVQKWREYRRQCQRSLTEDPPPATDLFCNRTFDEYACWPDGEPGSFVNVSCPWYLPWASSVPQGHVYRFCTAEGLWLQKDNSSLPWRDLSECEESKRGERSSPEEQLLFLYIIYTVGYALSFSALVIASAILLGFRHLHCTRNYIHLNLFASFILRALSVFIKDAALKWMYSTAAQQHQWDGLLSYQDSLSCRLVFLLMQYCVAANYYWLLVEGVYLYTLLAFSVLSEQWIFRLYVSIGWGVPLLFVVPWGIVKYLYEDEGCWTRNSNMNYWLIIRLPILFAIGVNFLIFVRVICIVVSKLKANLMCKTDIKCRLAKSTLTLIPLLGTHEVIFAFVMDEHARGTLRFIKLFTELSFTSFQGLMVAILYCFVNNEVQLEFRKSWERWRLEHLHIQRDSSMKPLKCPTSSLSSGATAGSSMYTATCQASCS
Sequence of human glucagon receptor (hGCGR) (P47871 26-477): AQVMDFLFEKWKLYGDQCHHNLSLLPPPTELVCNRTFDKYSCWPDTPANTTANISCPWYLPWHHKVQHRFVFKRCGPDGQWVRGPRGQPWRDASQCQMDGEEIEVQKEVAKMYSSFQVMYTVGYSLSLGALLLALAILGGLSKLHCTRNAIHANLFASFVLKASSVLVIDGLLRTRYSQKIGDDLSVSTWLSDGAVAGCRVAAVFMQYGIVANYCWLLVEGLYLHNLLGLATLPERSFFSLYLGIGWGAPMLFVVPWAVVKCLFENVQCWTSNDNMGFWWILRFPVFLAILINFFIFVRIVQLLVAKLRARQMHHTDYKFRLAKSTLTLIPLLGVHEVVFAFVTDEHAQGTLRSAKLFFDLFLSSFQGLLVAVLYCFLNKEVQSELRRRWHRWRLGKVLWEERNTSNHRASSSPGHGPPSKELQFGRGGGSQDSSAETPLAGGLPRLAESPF

remaining at 5 min, 3.3 mg/mL [2] | remaining at 10 min, 3.3 mg/mL [2] | remaining at 0.25 h, 3.3 mg/mL [2] | remaining at 0.5 h, 3.3 mg/mL [2] | EC50 [5, 8] | % Relative Potency Ratio ([5]; Table 6) | EC50 [6, 9] | % Relative Potency Ratio [5] | EC50 ([5]; cAMP, CHO cells, 0.1% BSA) | EC50 ([6]; cAMP, CHO cells, 0.1% BSA) | SMILES | 24 hr % Vehicle Food Intake [1] | GLP-1R KO % glucose change 120 min [3, 7] | WT % glucose change 120 min [4, 7] | GLP-1R KO % glucose change 120 min [3, 10] | GLP-1R KO % glucose change 120 min [3, 11] | WT % glucose change 120 min [4, 10] | WT % glucose change 120 min [4, 11]
83% | 33% | 29% | 19% | 1.89 pM | 5.8 | 5.52 pM |  |  |  | CCCCCCCCCCCCCCCC(=O)N[C@@H](CCC(=O)N[C@@H](CCC(=O)NCCOCCOCCOCCOCCC(=O)NCCCC[C@H](NC(=O)[C@H](CO)NC(=O)[C@H](CC(=O)O)NC(=O)[C@H](CC(C)C)NC(=O)[C@@H](NC(=O)[C@H](CCCCN)NC(=O)[C@H](CO)NC(=O)[C@@H](NC(=O)[C@H](CC(=O)O)NC(=O)[C@H](CO)NC(=O)[C@@H](NC(=O)[C@](C)(Cc1ccccc1)NC(=O)[C@H](CO)NC(=O)CNC(=O)[C@H](CCC(N)=O)NC(=O)C(C)(C)NC(=O)[C@@H](N)Cc1c[nH]cn1)[C@@H](C)O)C(C)C)C(c1ccccc1)c1ccccc1)C(=O)N[C@@H](CCCNC(=N)N)C(=O)N[C@@H](C)C(=O)N[C@@H](CCC(N)=O)C(=O)N[C@@H](CC(=O)O)C(=O)N[C@@](C)(Cc1ccccc1)C(=O)N[C@H](C(=O)N[C@@H](CCC(=O)O)C(=O)NC(C)(C)C(=O)N[C@@H](CC(C)C)C(=O)N[C@@H](CCC(=O)O)C(=O)N[C@@H](C)C(=O)NCC(=O)NCC(N)=O)C(C)C)C(=O)O)C(=O)O [Peptide 43] (H-H[Aib]QGS[αMeF]TSDVSK[Dip]LDSK([PEG4-γGlu-γGlu-Palmitoyl])RAQD[αMeF]VE[Aib]LEAGG-NH2; N-terminus assumed) | 53.2% | 63.9% | −56.0% |  |  |  | 
97% | 96% | 95% | 90% | 1.74 pM | 2.0 | 1.73 pM |  |  |  | CCCCCCCCCCCCCCCCCC(=O)N[C@@H](CCC(=O)N[C@@H](CCC(=O)NCCOCCOCCC(=O)NCCOCCOCCC(=O)NCCCC[C@H](NC(=O)[C@H](CO)NC(=O)[C@H](CC(=O)O)NC(=O)[C@H](CC(C)C)NC(=O)[C@@H](NC(=O)[C@H](CCCCN)NC(=O)[C@H](CO)NC(=O)[C@@H](NC(=O)[C@H](CC(=O)O)NC(=O)[C@H](CO)NC(=O)[C@@H](NC(=O)[C@](C)(Cc1ccccc1)NC(=O)[C@H](CO)NC(=O)CNC(=O)[C@H](CCC(N)=O)NC(=O)[C@H](CO)NC(=O)[C@@H](N)Cc1c[nH]cn1)[C@@H](C)O)C(C)C)C(c1ccccc1)c1ccccc1)C(=O)N[C@@H](C)C(=O)N[C@@H](C)C(=O)N[C@@H](CCC(N)=O)C(=O)N[C@@H](CC(=O)O)C(=O)N[C@@](C)(Cc1ccccc1)C(=O)N[C@H](C(=O)N[C@@H](CCC(=O)O)C(=O)NC(C)(C)C(=O)N[C@H](C(=O)N[C@@H](C)C(=O)N[C@@H](CC(N)=O)C(=O)N[C@H](C(N)=O)[C@@H](C)O)[C@@H](C)CC)C(C)C)C(=O)O)C(=O)O [Peptide 49] (H-HSQGS[αMeF]TSDVSK[Dip]LDSK([PEG2-PEG2-γGlu-γGlu-Stearoyl])AAQD[αMeF]VE[Aib]IANT-NH2; N-terminus assumed) | 69.2% |  |  | 193.3% | 154.3% | −1.2% | 16.8%
 |  |  |  |  |  |  | 1.3 | 35.7 pM | 23.6 pM | CC[C@H](C)[C@H](NC(=O)[C@H](Cc1c[nH]c2ccccc12)NC(=O)[C@H](CCCCNC(=O)COCCOCCNC(=O)COCCOCCNC(=O)CC[C@H](NC(=O)CCCCCCCCCCCCCCCCC(=O)O)C(=O)O)NC(=O)[C@@H](NC(=O)[C@H](Cc1ccccc1)NC(=O)[C@H](CC(=O)O)NC(=O)[C@H](CCC(N)=O)NC(=O)[C@H](C)NC(=O)[C@H](C)NC(=O)[C@H](CCCNC(=N)N)NC(=O)[C@H](CO)NC(=O)[C@H](CC(=O)O)NC(=O)[C@H](CC(C)C)NC(=O)[C@](C)(Cc1ccccc1)NC(=O)[C@H](CCCCN)NC(=O)[C@H](CO)NC(=O)[C@@H](NC(=O)[C@H](CC(=O)O)NC(=O)[C@H](CO)NC(=O)[C@@H](NC(=O)[C@](C)(Cc1ccccc1)NC(=O)[C@H](CO)NC(=O)CNC(=O)[C@H](Cc1c[nH]cn1)NC(=O)C(C)(C)NC(=O)[C@@H](N)Cc1c[nH]cn1)[C@@H](C)O)C(C)C)C(C)C)C(=O)N[C@@H](C)C(=O)N[C@@H](CC(N)=O)C(=O)N[C@H](C(N)=O)[C@@H](C)O [Peptide 361] (H-H[Aib]HGS[αMeF]TSDVSK[αMeF]LDSRAAQDFVK([AEEA-AEEA-γGlu-C18 diacid])WIANT-NH2; N-terminus assumed) | 78.8% |  |  | 91.5% | 93.8% | −23.0% | −38.1%
